Patent US20190194148A1, “TETRAZOLE-CONTAINING 1,2-CYCLOPROPANE-CARBOXAMIDES” (Bayer Pharma Aktiengesellschaft, priority 2017, published 2019)
Read-outs that look alike come from different tables or passages of the source.

What was measured:
[1] = target: T1, human B1 receptor (Homo sapiens, UniProt P46663); test: Calcium flux assay (FLIPR) with recombinant CHO-K1 cells expressing human B1 receptor; type: cell-based
T1 construct: host or cells: CHO-K1
T1 sequence (P46663 1-353): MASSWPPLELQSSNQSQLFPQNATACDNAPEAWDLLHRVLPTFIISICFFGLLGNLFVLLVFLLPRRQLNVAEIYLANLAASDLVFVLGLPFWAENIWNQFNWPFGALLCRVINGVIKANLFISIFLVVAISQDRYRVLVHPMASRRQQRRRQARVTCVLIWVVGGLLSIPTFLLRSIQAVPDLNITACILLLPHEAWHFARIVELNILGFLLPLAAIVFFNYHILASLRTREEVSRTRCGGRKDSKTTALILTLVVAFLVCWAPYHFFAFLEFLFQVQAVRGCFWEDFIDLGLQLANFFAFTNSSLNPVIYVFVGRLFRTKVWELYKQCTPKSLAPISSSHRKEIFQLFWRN
Method in brief: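 Indicator-loaded CHO-K1 cells expressing human B1 receptor were pre-incubated with compound (8 concentrations, triplicate, 1% DMSO) for 30 min at 28° C, in assay buffer with or without 0.1% BSA (hB1 IC50 vs free IC50). They were then challenged with Lys-(Des-Arg)-bradykinin from plates at 3.5×EC90, with peak FLIPR fluorescence read at 538 nm. IC50 was fitted from % response between DMSO and full block by 20 μM Lys-(Des-Arg-Leu)-bradykinin.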

[2] = target: T2, native human B1 receptors (Homo sapiens, UniProt P46663); test: Calcium flux assay (FLIPR) with IMR-90 human fibroblasts for Bradykinin B1 receptor antagonist; type: cell-based; details: IMR-90 human foetal lung fibroblasts after induction with human IL-1; 0.1% BSA in assay buffer; read-out: hB1 IC50 IMR90
T2 construct: which express native human B1 receptors after induction with human IL-1; Coriell Institute; host or cells: IMR-90 human foetal lung fibroblasts, induced with human IL-1beta
T2 sequence (P46663 1-353): T1 sequence (P46663 1-353)
Description: Calcium Flux Assay (FLIPR) with Human Fibroblasts for Bradykinin B1 Receptor Antagonist (hB1 IMR-90 IC50)
The Calcium flux Assay was carried out utilising IMR-90 human foetal lung fibroblasts (American Type Culture Collection, Rockville, Md.; and Coriell Institute, Camden, N.J.), which express native human B1 receptors after induction with human IL-1[…].
The fibroblasts were cultured in complete growth media comprised of Dulbecco's modified Eagle's medium (DMEM; Sigma) containing 10% foetal bovine serum, 4 mM L-glutamine, and 1% nonessential amino acids. The cells were maintained in a humidified atmosphere with 5% CO2 at 37° C. and were sub-cultured at a ratio of 1:3, every other day.
For the assay, IMR-90 fibroblasts were harvested using TrypLE Express (GIBCO/Invitrogen) and seeded into 384-well plates (Corning Cellbinding Surface, Cat. 3683) at a density of 15000 cells/well. The following day, cells were treated with 0.35 ng/mL human IL-1[…] in 10% FBS/MEM for 3 h to up-regulate B1 receptors. Induced cells were loaded with fluorescent calcium indicator by incubation with 2.5 μM Fluo-4/AM (Invitrogen) at 37° C., 5% CO2 for 2 h in the presence of 2.5 mM probenecid in 1% FBS/MEM. Extracellular dye was removed by washing with assay buffer (2.5 mM probenecid and 0.1% BSA in 20 mM HEPES/HBSS without bicarbonate or phenol red, pH 7.5). Example compounds were assayed at 8 concentrations in triplicate. […] A peptide antagonist Lys-(Des-Arg-Leu)-Bradykinin (Bachem, Brackley) at 20 µM was used to determine the full inhibition as control. IC50 values were determined by the same way described for the FLIPR assay with recombinant cells.

[3] = absence of 0.1% BSA in assay buffer, read-out: hB1 free IC50
[4] = presence of 0.1% BSA in assay buffer, read-out: hB1 IC50

SMILES | IC50 [1, 3] [µM] | IC50 [1, 4] [µM] | IC50 [2] [µM]
COc1ccc(-c2ccc(NC(=O)C3CC3C3CCC(C)CC3)cc2-c2nnn[nH]2)cc1OC (racemic) [Example 15, N-[3′,4′-dimethoxy-2-(1H-tetrazol-5-yl)biphenyl-4-yl]-2-(4-methylcyclohexyl)cyclo-propanecarboxamide] | – | 0.005 | 0.025
Cc1cccc(C2CC2C(=O)Nc2cc(-c3nnn[nH]3)c(-c3ccc(C(F)(F)F)nc3)cc2O)c1 (racemic) [Example 52, N-{2-Hydroxy-5-(1H-tetrazol-5-yl)-4-[6-(trifluoromethyl)pyridin-3-yl]phenyl}-2-(3-methylphenyl)cyclopro-panecarboxamide] | 0.041 | 0.037 | 0.078
COc1ccc(-c2cc(F)c(NC(=O)C3CC3c3cccc(C)c3)cc2-c2nnn[nH]2)cc1 (racemic) [Example 55, N-[5-Fluoro-4′-methoxy-2-(1H-tetrazol-5-yl)biphenyl-4-yl]-2-(3-methylphenyl)cyclopro-panecarboxamide] | 0.019 | 0.01 | 0.022
CCOc1ccc(-c2cc(C)c(NC(=O)C3CC3c3ccc(Cl)cc3)cc2-c2nnn[nH]2)cn1 (racemic) [Example 64, 2-(4-Chlorophenyl)-N-[4-(6-ethoxypyridin-3-yl)-2-methyl-5-(1H-tetrazol-5-yl)phenyl]cyclopropane-carboxamide] | 0.015 | 0.037 | 0.063
Cn1cc(-c2ccc(NC(=O)C3CC3c3ccc(Cl)cc3)cc2-c2nnn[nH]2)cn1 (racemic) [Example 80, 2-(4-chlorophenyl)-N-[4-(1-methyl-1H-pyrazol-4-yl)-3-(1H-tetrazol-5-yl)phenyl]cyclopropane-carboxamide] | 1.31 | 12.4 | –
CCOc1ccc(-c2ccc(NC(=O)C3CC3c3cnn(C)c3)cc2-c2nnn[nH]2)cn1 (racemic) [Example 81, N-[4-(6-ethoxypyridin-3-yl)-3-(1H-tetrazol-5-yl)phenyl]-2-(1-methyl-1H-pyrazol-4-yl)cyclopro-panecarboxamide] | 2.5 | 4.07 | –
COCc1ccc(-c2ccc(NC(=O)C3CC3C3CCCCC3)cc2-c2nnn[nH]2)cc1 (racemic) [Example 82, 2-cyclohexyl-N-[4′-(methoxymethyl)-2-(1H-tetrazol-5-yl)biphenyl-4-yl]cyclopropanecarbox-amide] | – | 2.55 | –
COc1ccc(-c2ccc(NC(=O)C3CC3C3CCCCC3)cc2-c2nnn[nH]2)cc1C (single isomer, unassigned) [Example 35, 2-Cyclohexyl-N-[4′-methoxy-3′-methyl-2-(1H-tetrazol-5-yl)biphenyl-4-yl]cyclopropanecarbox-amide] | – | 0.378 | –
CCOc1ccc(-c2cc(O)c(NC(=O)C3CC3c3ccc(Cl)cc3)cc2-c2nnn[nH]2)cn1 (single isomer, unassigned) [Example 49, 2-(4-chlorophenyl)-N-[4-(6-ethoxypyridin-3-yl)-2-hydroxy-5-(1H-tetrazol-5-yl)phenyl]cyclopropane-carboxamide] | – | 1.58 | –
CCOc1ccc(-c2cc(O)c(NC(=O)C3CC3c3ccc(Cl)cc3)cc2-c2nnn[nH]2)cn1 (single isomer, unassigned) [Example 50, 2-(4-chlorophenyl)-N-[4-(6-ethoxypyridin-3-yl)-2-hydroxy-5-(1H-tetrazol-5-yl)phenyl]cyclopropane-carboxamide] | – | 0.024 | –
CC(C)(C)c1cn(-c2ccc(NC(=O)C3CC3c3ccc(Cl)cc3)cc2-c2nnn[nH]2)cn1 (single isomer, unassigned) [Example 85, N-[4-(4-tert-butyl-1H-imidazol-1-yl)-3-(1H-tetrazol-5-yl)phenyl]-2-(4-chlorophenyl)cyclopropanecarboxamide] | 0.147 | – | –
CC[C@@H]1CCN(c2ccc(NC(=O)C3CC3c3ccc(Cl)cc3)cc2-c2nnn[nH]2)C1=O (stereo partly drawn) [Example 75, 2-(4-Chlorophenyl)-N-{4-[(3R)-3-ethyl-2-oxopyrrolidin-1-yl]-3-(1H-tetrazol-5-yl)phenyl}cyclopropane-carboxamide] | 0.458 | – | –
O=C(Nc1cc(-c2nnn[nH]2)c(-c2ccc(C(F)(F)F)nc2)cc1O)C1CC1c1ccc(Cl)cc1 (stereo not shown) [Example 83, 2-(4-chlorophenyl)-N-[2-hydroxy-5-(1H-tetrazol-5-yl)-4-[6-(trifluoromethyl)-3-pyridyl]phenyl]cyclo-propanecarboxamide] | 0.188 | 0.484 | –

More lines, in order of falling IC50 [1, 3], values ahead:

IC50 [1, 3] [µM] | IC50 [1, 4] [µM] | IC50 [2] [µM] | SMILES
0.014 | 0.022 | 0.022 | CCOc1ccc(-c2ccc(NC(=O)C3(C)CC3c3ccccc3)cc2-c2nnn[nH]2)cn1 (racemic) [Example 21, [4-(6-Ethoxypyridin-3-yl)-3-(1H-tetrazol-5-yl)phenyl]-1-methyl-2-phenylcyclopropane-carboxamide]
0.012 | 0.008 | 0.008 | COc1ccc(-c2ccc(NC(=O)C3CC3c3cccc(Cl)c3)cc2-c2nnn[nH]2)cc1OC (racemic) [Example 8, 2-(3-chlorophenyl)-N-[3′,4′-dimethoxy-2-(1H-tetrazol-5-yl)biphenyl-4-yl]cyclo-propanecarboxamide]
0.012 | – | 0.044 | CCOc1ccc(-c2c(F)cc(NC(=O)C3CC3c3ccc(Cl)cc3)cc2-c2nnn[nH]2)cn1 (racemic) [Example 61, 2-(4-chlorophenyl)-N-[4-(6-ethoxypyridin-3-yl)-3-fluoro-5-(1H-tetrazol-5-yl)phenyl]cyclopropane-carboxamide]
0.006 | – | 0.01 | CCOc1ccc(-c2ccc(NC(=O)C3CC3c3cccc(Cl)c3)cc2-c2nnn[nH]2)cn1 (racemic) [Example 19, 2-(3-Chlorophenyl)-N-[4-(6-ethoxypyridin-3-yl)-3-(1H-tetrazol-5-yl)phenyl]cyclopro-panecarboxamide]
0.005 | 0.097 | 0.012 | CCOc1ccc(-c2ccc(NC(=O)C3CC3c3ccc(Cl)cc3)cc2-c2nnn[nH]2)cn1 (racemic) [Example 17, 2-(4-Chlorophenyl)-N-[4-(6-ethoxypyridin-3-yl)-3-(1H-tetrazol-5-yl)phenyl]cyclopro-panecarboxamide]
0.005 | 0.015 | 0.006 | CCOc1ccc(-c2ccc(NC(=O)C3CC3c3cccc(C)c3)cc2-c2nnn[nH]2)cn1 (racemic) [Example 18, N-[4-(6-Ethoxypyridin-3-yl)-3-(1H-tetrazol-5-yl)phenyl]-2-(3-methylphenyl)cyclopro-panecarboxamide]
0.004 | – | – | CC(C)(C)c1cn(-c2ccc(NC(=O)C3CC3c3ccc(Cl)cc3)cc2-c2nnn[nH]2)cn1 (single isomer, unassigned) [Example 84, N-[4-(4-tert-butyl-1H-imidazol-1-yl)-3-(1H-tetrazol-5-yl)phenyl]-2-(4-chlorophenyl)cyclopropanecarboxamide]
0.003 | 0.011 | 0.008 | CCOc1ccc(-c2cc(O)c(NC(=O)C3CC3c3cccc(C)c3)cc2-c2nnn[nH]2)cn1 (racemic) [Example 51, N-[4-(6-Ethoxypyridin-3-yl)-2-hydroxy-5-(1H-tetrazol-5-yl)phenyl]-2-(3-methylphenyl)cyclopro-panecarboxamide]
